From patent US20150005306A1 (priority 2013, published 2015)
“Also recorded” adds a separate entry of the source.

Experiments:
[1] = system: Alzheimer's disease transgenic mouse; assay: Fear conditioning-cued test; type: in vivo; details: 1 mg/kg of each drug, after the 13 weeks of Example 1
Source text: (§1) To observe the effects of the combination of EPPS and donepezil, the experimental animal subjected to the Y-maze behavior test for 13 weeks in Example 1 was subjected to a fear conditioning test for testing fearful memory of space and sound.
(§2) The fear conditioning test was divided into a fear conditioning-contextual test that tests fearful memory of space and fear conditioning-cued test that tests fearful memory of sound.
(§3) The test included a pair of sound stimulation (CS(conditioned stimulus), 30 seconds, 85 dB, and 30 kHz) and electric shock (US(unconditioned stimulus), 1 second, and 0.5 mA), which was repeated twice. Each was performed with a term of 90 seconds and the mouse was taken out from the conditioning box 90 seconds after the last electric shock (US). The following tests were performed after 24 hours.
Cued test: To change the context after 24 hours of the contextual test, the mouse was put into a box other than the box used for the contextual test and was provided with a sound stimulation identical to the contextual test (electric shock was not provided) to measure freeze reactions. The results were used as a scale for fear response conditioned to the cues.

[2] = system: β-amyloid fibrils or oligomers; details: as disclosed in a research paper; cited from earlier work
[3] = system: Alzheimer's disease transgenic mouse; assay: Y-maze behavior test (spontaneous alternation); type: in vivo; details: B6C3-Tg(APPswe, PSEN1dE9) mouse, 1 mg/kg of each drug orally every day, Y-maze once every week for 13 weeks
Procedure: To test the effects of a combination of EPPS and donepezil, a Y-maze behavior test for evaluating learning memory of an Alzheimer's disease transgenic mouse was performed.
10 months old B6C3-Tg(APPswe, PSEN1dE9)85Dbo/Mmjax (The Jackson Laboratory, the U.S.A.) was used as the Alzheimer's disease transgenic mouse, as an experimental animal. The experimental animal was divided into three groups, namely, a donepezil administered group, an EPPS administered group, and a combination of donepezil and EPPS administered group were orally administered with respective drugs everyday in the amounts shown in Table 1 below and the Y-maze test was performed once every week for 13 weeks. As a control group, a transgenic mouse that was not administered with a drug was used as a negative control group and a normal mouse that was not administered with a drug was used as a positive control group.
The Y-maze instrument includes a maze made of a black acrylic board [branches: width 6 cm, length 40 cm, and height 12 cm] having a Y-shape in which all corners were blocked and each branch was disposed at a uniform angle of 120°. […] Frequencies and sequences of the experimental animal moving into each branch were measured to evaluate spontaneous alternation (%). […]

[4] = system: Alzheimer's disease transgenic mouse; assay: Fear conditioning-contextual test; type: in vivo; details: 1 mg/kg of each drug, after the 13 weeks of Example 1
Source text: as §1, §2, §3
Contextual test: the experimental animal was maintained in the conditioning box and freeze response were measured without providing sound stimulation and electric shock, results of which were used as a scale of conditioned fearful reaction. The freeze reaction was defined as a motionless state, except for breathing.

SMILES | Average freeze response, cued test [1] | effect on accumulation of β-amyloid fibrils or oligomers [2] | improvement in cognitive skills (normalized % alternation rate, FIG. 1) [3] | Average freeze response, contextual test [4]
O=S(=O)(O)CCCN1CCN(CCO)CC1 [EPPS, N-(2-hydroxyethyl)piperazine-N′(3-propanesulfonic acid)] | 55.1042 | inhibits the accumulation of β-amyloid fibrils or oligomers and decomposes the accumulated β-amyloid fibrils or oligomers | gradual improvement in the cognitive skills compared with that of the donepezil administered group; also recorded: reached the same level of cognitive skills as the donepezil administered group at 10 weeks; also recorded: long-term improvement in cognitive skills but a slower improvement compared with donepezil and a lower improvement compared with the combination of EPPS and donepezil | 34.437
COc1cc2c(cc1OC)C(=O)C(CC1CCN(Cc3ccccc3)CC1)C2 (stereo not shown) [donepezil, reference compound] | 58.9167 |  | initially showed a rapid improvement in cognitive skills, but the improvement reached peak at 5 weeks and decreased at 7 weeks; also recorded: rapid but short-term improvement in cognitive skills | 16.602
